Measured values from publication PMC8016166, “Identification of a Potent and Selective 5-HT1A Receptor Agonist with In Vitro and In Vivo Antinociceptive Activity” (ACS Chemical Neuroscience, 2020).

Assays:
5-HT1AR [1] = target: T1, 5-HT1AR (Rattus norvegicus, UniProt P19327); assay: Effect of WAY100635 on compound-stimulated [35S]GTPγS binding (Tables SI-1, SI-2); format: biochemical
T1 construct: from tissue; hippocampus per the main-text methods
T1 sequence (P19327 1-422): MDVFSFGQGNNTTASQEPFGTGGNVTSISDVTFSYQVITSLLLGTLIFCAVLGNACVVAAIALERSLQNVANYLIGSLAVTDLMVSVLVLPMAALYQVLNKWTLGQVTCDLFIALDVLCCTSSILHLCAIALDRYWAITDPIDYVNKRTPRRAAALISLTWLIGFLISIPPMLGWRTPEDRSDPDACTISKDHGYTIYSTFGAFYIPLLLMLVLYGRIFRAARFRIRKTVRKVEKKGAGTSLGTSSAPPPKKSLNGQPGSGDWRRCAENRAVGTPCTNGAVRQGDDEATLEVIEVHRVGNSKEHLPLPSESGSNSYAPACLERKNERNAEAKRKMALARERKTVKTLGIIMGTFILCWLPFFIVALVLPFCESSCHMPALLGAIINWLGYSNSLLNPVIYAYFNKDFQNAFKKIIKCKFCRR
Experimental: The [^35S]GTPγS assay was performed according to the method described previously.[49] […] Nonspecific binding was determined with 100 μM of unlabeled GTPγS. The reaction mixture was incubated for 90 min at 36 °C in a volume of 250 μL. […] Next, 96-well Unifilter Plates (PerkinElmer, USA) were presoaked for 1 h with 50 mM Tris-HCl (pH = 7.4) before harvesting. The reaction was terminated by vacuum filtration onto filter plates with the Filter Mate Harvester (PerkinElmer, USA). The samples were then rapidly washed with 2 mL of 50 mM Tris-HCl (pH = 7.4) buffer. The filter plates were dried for 2 h at 50 °C. After drying, 45 μL of EcoScint-20 scintillant (PerkinElmer, USA) was added to every well. The radioactivity was counted in a Trilux MicroBeta^2 counter (PerkinElmer, USA). The data were analyzed with GraphPad Prism 5.0 software (GraphPad Software, San Diego California USA, www.graphpad.com). To determine whether compound-stimulated [^35S]GTPγS binding involved 5-HT1A receptors, two protocols were used. […]
WAY).) Results were expressed as means ± SEM. Curves were fitted with a one-site sigmoidal dose-response equation […]
calculated as the ratio of pEC50 in the presence of WAY100635 divided by the pEC50 of agonist alone. Basal 5-HT1AR activation was set to 100%. Results were analyzed with one-way ANOVA followed by the Bonferroni’s post-hoc test. […]
WAY100635 (10^-10 M - 10^-5 M, WAY). Results were expressed as means ± SEM. Curves were fitted with a one-site sigmoidal dose-response equation and Emax (%) of the EC80 agonist concentration alone and in the presence of WAY100635 were determined from 2 independent experiments. Basal (no ligand added) [35S]GTPγS binding was set to 100%. Results were analyzed with one-way ANOVA followed by the Bonferroni’s post-hoc test.

[2] = system: superficial dorsal horn neurons (lamina I–II); assay: Patch-clamp recording from spinal cord slices; format: cell-based, mouse
Experimental: The Italian Ministry of Health approved all the experiments that were conducted on postnatal CD1 mice (P18–P25) in accordance with the Guide for the Care and Use of Laboratory Animals and the EU and Italian regulations on animal welfare. The spinal cord slices were obtained following the procedure described previously.[69],[70] Briefly, the animals were anesthetized with isoflurane and decapitated, the spinal cord and vertebrae were rapidly removed and placed in ice-cold dissecting Krebs’ solution (composition in mM:125 NaCl, 2.5 KCl, 1.25 NaH2PO4, 26 NaHCO3, 25 glucose, 6 MgCl2, 1.5 CaCl2, and 1 kynurenic acid, pH 7.4, 320 mOsm), bubbled with 95% O2, 5% CO2. The lumbar spinal cord was isolated, embedded in an agarose block (low melting point agarose 3%, Thermo Fisher Scientific, Waltham, USA), and transverse slices (500 μm thick) were obtained using a vibrating microtome (WPI, Sarasota, USA). The slices were incubated in oxygenated incubation Krebs’ solution (the same as dissecting but without kynurenic acid) at 35 °C for 30 min and used for recording. The Patch-clamp recording in whole-cell configuration was performed on lamina I–II neurons at room temperature. The slices were perfused at 2 mL/min with recording Krebs’solution (in mM: 125 NaCl, 2.5 KCl, 1.25 NaH2PO4, 26 NaHCO3, 25 glucose, 1 MgCl2, and 2 CaCl2, pH 7.4, 320 mOsm). Recordings of post-synaptic currents (EPSCs) were performed in voltage clamp, by using an intracellular solution with the following composition (in mM): 120 potassium methanesulfonate, 10 NaCl, 10 EGTA, 1 CaCl2, 10 HEPES, 5 ATP-Mg, pH adjusted to 7.2 with KOH, osmolarity 300 mOsm. 8-OH-DPAT was obtained from Sigma-Aldrich (Saint Louis, USA). The data were recorded and acquired using a Multiclamp 700A amplifier and the pClamp 10 software (Molecular Devices, Sunnyvale, USA). The sampling rate was 10 kHz, and the data were filtered at 2 kHz. The data were analyzed off-line using pClamp10 software and Minianalysis (Synaptosoft, USA). The data are expressed as the mean ± SEM and differences were considered significant for p < 0.05. The statistical significance for the effect on EPSC frequency was determined using the Kolmogorov–Smirnov test on individual neurons.

5-HT1AR [3] = target: T1, 5-HT1AR; assay: [35S]GTPγS functional 5-HT1A assay in rat hippocampal membranes; format: biochemical; settings: read-out: 5-HT1A Emax (%) ± SEM
Experimental: (§1) Male Sprague–Dawley rats were decapitated and their brains removed and placed on ice. The hippocampi (for the functional 5-HT1A receptor assay) or frontal cortexes (for the competitive 5-HT2A and 5-HT2C receptor assays) were dissected and homogenized with a glass homogenizer in 30 vol. ice-cold TED buffer (50 mMTris-HCl, 1 mM EDTA, 1 mM dithiotheritol, pH 7.4). Next, the homogenate was centrifuged at 21 000g for 30 min at 4 °C. The pellet was suspended in 30 vol TED buffer (pH 7.4) and incubated in a water bath for 10 min at 37 °C to remove endogenous ligands. The suspension was centrifuged again at 21 000g for 30 min at 4 °C. The pellet was resuspended in 30 vol TED buffer (pH 7.4) and the centrifugation step was repeated. The final pellet was suspended in 10 vol 50 mM Tris-HCl (pH 7.4) and stored at −80 °C until use.[47]
The [^35S]GTPγS assay was performed according to the method described previously.[49] […] Nonspecific binding was determined with 100 μM of unlabeled GTPγS. The reaction mixture was incubated for 90 min at 36 °C in a volume of 250 μL. […] Next, 96-well Unifilter Plates (PerkinElmer, USA) were presoaked for 1 h with 50 mM Tris-HCl (pH = 7.4) before harvesting. The reaction was terminated by vacuum filtration onto filter plates with the Filter Mate Harvester (PerkinElmer, USA). The samples were then rapidly washed with 2 mL of 50 mM Tris-HCl (pH = 7.4) buffer. The filter plates were dried for 2 h at 50 °C. After drying, 45 μL of EcoScint-20 scintillant (PerkinElmer, USA) was added to every well. The radioactivity was counted in a Trilux MicroBeta^2 counter (PerkinElmer, USA). The data were analyzed with GraphPad Prism 5.0 software (GraphPad Software, San Diego California USA, www.graphpad.com). To determine whether compound-stimulated [^35S]GTPγS binding involved 5-HT1A receptors, two protocols were used.
The curves were fitted with a one-site nonlinear regression model. Efficacy (Emax) and potency (pEC50) were calculated from […] from three separate experiments and expressed as the means ± SEM. […] The differences in compound potency and efficacy were evaluated with one-way ANOVA followed by the Bonferroni’s post-hoc test. The baseline G-protein stimulation was set at 100%. One, two, or three symbols represent statistical significance of 0.05, 0.01, and 0.001, respectively.

Male Swiss CB1 mice = assay: Formalin test; format: in vivo, mouse
Experimental: Male Swiss CB1 mice (Envigo, S. Pietro al Natisone (UD)) weighing 25–30 g were used. The animals were kept at a constant room temperature (25 ± 1 °C) under a 12:12 h light and dark cycle, with free access to food and water. Each mouse was used for only one experiment. […] All the tests were performed blind to treatment.
The formalin (5%, 10 μL; Sigma-Aldrich) was injected subcutaneously into the plantar side of the right hind paw.[68] After injection, the mice were immediately placed in a plexiglas box: the total time (in seconds) spent on licking or biting the injected hind paw was recorded every 5 min at selected intervals, 0–10 (phase I) and 10–60 (phase II) min, in the different experimental groups, as an indicator of nociceptive behavior. […] A mean response was then calculated for each phase. […] A vehicle solution containing 10% DMSO was given as a control. Morphine was used as positive control. The test compound and vehicle were […] (i.p.) administered (5 mL/kg) 15 min before the formalin. […] The data are expressed as mean values (SEM). Analyses of variance (two-way repeated measures ANOVA followed by post hoc Bonferroni test) were performed to assess significance using the Instat 3.0 software (GraphPad Software, San Diego, CA). p < 0.05 was considered significant.

5-HT2CR = target: T2, 5-HT2CR (Rattus norvegicus, UniProt P08909); assay: Radioligand binding at 5-HT2C on rat frontal cortex membranes; settings: rat frontal cortex membranes; [3H]mesulergine
T2 construct: from tissue; host or cells: frontal cortex of male Sprague-Dawley rats
T2 sequence (P08909 33-460): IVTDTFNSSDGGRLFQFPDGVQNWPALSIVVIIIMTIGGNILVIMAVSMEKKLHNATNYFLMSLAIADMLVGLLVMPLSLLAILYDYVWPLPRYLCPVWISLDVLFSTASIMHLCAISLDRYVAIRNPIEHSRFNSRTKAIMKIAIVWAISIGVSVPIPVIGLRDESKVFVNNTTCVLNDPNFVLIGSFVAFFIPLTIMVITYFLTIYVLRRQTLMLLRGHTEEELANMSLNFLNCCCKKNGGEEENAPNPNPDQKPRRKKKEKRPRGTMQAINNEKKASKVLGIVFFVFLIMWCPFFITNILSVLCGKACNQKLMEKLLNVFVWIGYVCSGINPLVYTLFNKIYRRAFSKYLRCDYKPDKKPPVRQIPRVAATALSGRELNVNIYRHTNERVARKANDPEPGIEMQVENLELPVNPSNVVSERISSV
Experimental: as §1
The 5-HT2A assay was performed according to a previously described protocol with some modifications.[48] […] Nonspecific binding was determined in the presence of 10 μM mianserin. For the 5-HT2C assay, the frontal cortex homogenates (250 μg protein/mL) were incubated in triplicate with 1 nM [^3H]mesulergine for 60 min at 36 °C in a 50 mM Tris-HCl (pH 7.4) buffer containing 0.1% ascorbate, 10 mM MgCl2, 10 μM pargyline, 100 nM spiperone, and increasing concentrations (10^–10–10^–5 M) of the compound tested. After incubation, the reaction mixture was deposited onto UniFilter-96 GF/B plates, with the aid of a FilterMate-96 Harvester. The filter plates were presoaked with 0.4% PEI for 1 h. Next, each filter well was washed with 1.75 mL of 50 mM Tris-HCl (pH 7.4) and left to dry on a heating block set to 50 °C for 2 h. Then, 45 μL of Microscint-20 scintillation fluid was added to each filter well and left to equilibrate overnight. The filter-bound radioactivity was counted in a MicroBeta^2 Microplate Counter. Curves were fitted with a one-site sigmoidal dose–response equation and pKi for each compound was calculated with the Cheng-Pursoff equation. Results were analyzed with one-way ANOVA followed by the Bonferroni’s posthoc test. The results are expressed as means ± SEM of three independent experiments.

For `CCCN(CCC)C1CCc2cccc(O)c2C1` (stereo not drawn) [8-OH-DPAT, reference compound], which Emax (5-HT1AR [1]; read-out: Emax (%) ± SEM of EC80 agonist concentration alone) is on record?
Its Emax is 142 ± 19.4%.

What about the Emax (5-HT1AR [1]; read-out: Emax (%) ± SEM, compound alone) of the same compound?
Its Emax is 152 ± 2.4%.

What about the “neurons showing sEPSC frequency decrease” value ([2]; 10 μM) of the same compound?
Its value is 4 out of 11.

And the “neurons showing slow outward current” value ([2]; bath application 10 μM, voltage clamp −60 mV)?
The value was 6 out of the 11.

What about the Emax (5-HT1AR [3]) of the same compound?
The Emax was 152 ± 2.4%.

How did the “analgesic effect in first and second phases of the formalin test” value (Male Swiss CB1 mice; 10 mg/kg i.p., formalin 5% 10 μL intraplantar) turn out when `CN1CC[C@]23c4c5ccc(O)c4O[C@H]2[C@@H](O)C=C[C@H]3[C@H]1C5` [Morphine, reference compound] was run?
The value was “essentially eliminated the response to formalin”.

`COc1ccccc1N1CCN(CCN(C(=O)C2CCCCC2)c2ccccn2)CC1` [WAY-100635, reference compound] was tested. Which “licking response after formalin, per se” value (Male Swiss CB1 mice; 3 mg/kg i.p.) did it give?
The value was “did not alter the licking response”.

Which Emax (5-HT1AR [3]; rat hippocampal membranes, basal 5-HT1AR activation set to 100%) does the source give for `NCCc1c[nH]c2ccc(O)cc12` [serotonin, reference compound] here?
Its Emax is 192 ± 4.9%.

`COc1cc(OC)c(C(=O)CCCCN2CCC3(CC2)NC(=O)NC3=O)cc1NS(=O)(=O)c1ccc(C(F)(F)F)cc1` [RS-102221, reference compound] was tested. Which “5-HT2C pKi ± SEM” value (5-HT2CR) did it give?
The value was 8.34 ± 0.12.
